Assay results as given in ChEMBL document CHEMBL5385861, “Development of novel hydrazidoarylaminopyrimidine-based BTK/FLT3 dual inhibitors with potent in vivo anti-hematological malignancies effects” (Eur J Med Chem, 2023).
Calls of active or inactive are those of the source. No cut-off for these calls is given here.

Legend:
[1] = molecular target: T1, Tyrosine-protein kinase BTK (Homo sapiens, UniProt Q06187); assay: Inhibition of BTK (unknown origin) incubated for 40 mins by radiometric kinase assay
T1 sequence (Q06187 whole entry): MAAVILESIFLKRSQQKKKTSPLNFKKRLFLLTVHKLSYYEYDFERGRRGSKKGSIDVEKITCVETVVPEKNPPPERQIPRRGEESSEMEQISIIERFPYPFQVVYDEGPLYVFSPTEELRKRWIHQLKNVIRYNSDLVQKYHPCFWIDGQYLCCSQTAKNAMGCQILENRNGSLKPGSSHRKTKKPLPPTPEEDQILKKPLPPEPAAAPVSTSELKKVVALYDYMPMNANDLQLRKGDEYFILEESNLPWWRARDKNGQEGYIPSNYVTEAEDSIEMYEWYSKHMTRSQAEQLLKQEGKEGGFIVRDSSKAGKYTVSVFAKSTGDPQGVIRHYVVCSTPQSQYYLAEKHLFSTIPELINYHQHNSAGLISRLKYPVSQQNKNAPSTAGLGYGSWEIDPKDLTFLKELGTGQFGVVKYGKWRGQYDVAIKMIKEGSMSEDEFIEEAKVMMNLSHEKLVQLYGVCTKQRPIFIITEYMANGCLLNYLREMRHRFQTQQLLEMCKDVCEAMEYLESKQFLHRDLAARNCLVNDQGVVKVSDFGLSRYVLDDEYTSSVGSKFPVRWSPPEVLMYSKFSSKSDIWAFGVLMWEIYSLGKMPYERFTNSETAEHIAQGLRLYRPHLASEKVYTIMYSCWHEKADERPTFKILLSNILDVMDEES

[2] = molecular target: Tyrosine-protein kinase Blk (Homo sapiens) (UniProt P51451); assay: Inhibition of BLK (unknown origin) at 0.2 uM incubated for 40 mins by radiometric kinase assay relative to control
[3] = molecular target: Cytoplasmic tyrosine-protein kinase BMX (Homo sapiens) (UniProt P51813); assay: Inhibition of BMX (unknown origin) at 0.2 uM incubated for 40 mins by radiometric kinase assay relative to control
Chain of Cytoplasmic tyrosine-protein kinase BMX (Homo sapiens) (P51813 whole entry): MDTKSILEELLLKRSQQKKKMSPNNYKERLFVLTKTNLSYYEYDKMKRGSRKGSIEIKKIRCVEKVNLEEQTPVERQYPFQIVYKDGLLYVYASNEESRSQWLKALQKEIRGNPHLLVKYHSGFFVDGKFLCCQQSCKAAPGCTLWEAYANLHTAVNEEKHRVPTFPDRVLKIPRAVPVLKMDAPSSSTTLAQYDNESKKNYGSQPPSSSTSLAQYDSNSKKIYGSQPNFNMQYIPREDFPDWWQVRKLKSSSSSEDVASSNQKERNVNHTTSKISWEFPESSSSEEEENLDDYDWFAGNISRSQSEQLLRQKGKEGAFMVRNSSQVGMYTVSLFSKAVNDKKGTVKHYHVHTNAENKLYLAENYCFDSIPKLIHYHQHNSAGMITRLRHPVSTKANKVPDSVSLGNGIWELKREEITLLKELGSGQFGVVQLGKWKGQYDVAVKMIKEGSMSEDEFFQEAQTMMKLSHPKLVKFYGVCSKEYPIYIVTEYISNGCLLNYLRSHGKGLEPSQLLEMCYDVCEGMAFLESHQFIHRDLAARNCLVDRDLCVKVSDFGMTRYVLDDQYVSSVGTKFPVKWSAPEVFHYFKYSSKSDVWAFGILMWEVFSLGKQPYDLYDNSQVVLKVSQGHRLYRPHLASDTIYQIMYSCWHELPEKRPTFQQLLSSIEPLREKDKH

[4] = molecular target: CDK6/cyclin D3 (Homo sapiens) (UniProt P30281+Q00534); assay: Inhibition of CDK6/cyclinD3 (unknown origin) at 0.2 uM incubated for 40 mins by radiometric kinase assay relative to control; type: protein-complex assay
[5] = molecular target: Mast/stem cell growth factor receptor Kit (Homo sapiens) (UniProt P10721); assay: Inhibition of cKit (unknown origin) at 0.2 uM incubated for 40 mins by radiometric kinase assay relative to control
[6] = molecular target: Vascular endothelial growth factor receptor 1 (Homo sapiens) (UniProt P17948); assay: Inhibition of FLT1 (unknown origin) at 0.2 uM incubated for 40 mins by radiometric kinase assay relative to control
Chain of Vascular endothelial growth factor receptor 1 (Homo sapiens) (P17948 whole entry): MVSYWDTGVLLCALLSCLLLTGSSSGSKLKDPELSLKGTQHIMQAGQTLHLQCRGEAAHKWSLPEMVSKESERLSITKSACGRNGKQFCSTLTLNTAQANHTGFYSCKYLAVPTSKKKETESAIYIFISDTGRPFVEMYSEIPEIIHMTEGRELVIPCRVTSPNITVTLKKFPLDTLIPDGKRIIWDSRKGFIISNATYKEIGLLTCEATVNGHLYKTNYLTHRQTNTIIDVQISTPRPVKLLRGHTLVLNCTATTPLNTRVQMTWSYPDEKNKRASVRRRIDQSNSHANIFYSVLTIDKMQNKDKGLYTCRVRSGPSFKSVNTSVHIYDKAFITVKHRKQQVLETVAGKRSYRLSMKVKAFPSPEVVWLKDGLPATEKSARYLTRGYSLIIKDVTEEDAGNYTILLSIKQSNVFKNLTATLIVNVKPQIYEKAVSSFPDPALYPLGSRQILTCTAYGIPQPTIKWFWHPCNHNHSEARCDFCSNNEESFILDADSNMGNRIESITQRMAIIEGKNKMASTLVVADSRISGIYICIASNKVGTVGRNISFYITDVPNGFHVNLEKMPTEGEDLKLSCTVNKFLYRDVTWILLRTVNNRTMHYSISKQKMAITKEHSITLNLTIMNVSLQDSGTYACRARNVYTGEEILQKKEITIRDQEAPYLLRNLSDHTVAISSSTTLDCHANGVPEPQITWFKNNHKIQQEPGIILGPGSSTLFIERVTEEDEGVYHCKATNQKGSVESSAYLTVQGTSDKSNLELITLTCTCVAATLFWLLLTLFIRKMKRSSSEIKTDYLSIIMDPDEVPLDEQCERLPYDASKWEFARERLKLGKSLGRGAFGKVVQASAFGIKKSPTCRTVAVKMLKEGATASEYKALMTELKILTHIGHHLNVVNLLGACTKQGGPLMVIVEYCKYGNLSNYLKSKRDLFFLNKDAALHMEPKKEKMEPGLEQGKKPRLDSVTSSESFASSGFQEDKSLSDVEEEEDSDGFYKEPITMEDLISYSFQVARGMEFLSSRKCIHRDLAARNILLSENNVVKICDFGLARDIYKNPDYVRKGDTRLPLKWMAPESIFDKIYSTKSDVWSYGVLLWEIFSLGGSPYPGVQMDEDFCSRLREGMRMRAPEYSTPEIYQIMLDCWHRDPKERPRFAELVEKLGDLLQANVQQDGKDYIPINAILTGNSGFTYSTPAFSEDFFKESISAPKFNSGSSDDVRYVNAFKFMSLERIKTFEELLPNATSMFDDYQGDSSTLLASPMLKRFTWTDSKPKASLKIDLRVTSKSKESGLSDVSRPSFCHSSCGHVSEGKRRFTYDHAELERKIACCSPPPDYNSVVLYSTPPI

[7] = molecular target: Tyrosine-protein kinase HCK (Homo sapiens) (UniProt P08631); assay: Inhibition of HCK (unknown origin) at 0.2 uM incubated for 40 mins by radiometric kinase assay relative to control
Chain of Tyrosine-protein kinase HCK (Homo sapiens) (P08631 2-526 limits assumed): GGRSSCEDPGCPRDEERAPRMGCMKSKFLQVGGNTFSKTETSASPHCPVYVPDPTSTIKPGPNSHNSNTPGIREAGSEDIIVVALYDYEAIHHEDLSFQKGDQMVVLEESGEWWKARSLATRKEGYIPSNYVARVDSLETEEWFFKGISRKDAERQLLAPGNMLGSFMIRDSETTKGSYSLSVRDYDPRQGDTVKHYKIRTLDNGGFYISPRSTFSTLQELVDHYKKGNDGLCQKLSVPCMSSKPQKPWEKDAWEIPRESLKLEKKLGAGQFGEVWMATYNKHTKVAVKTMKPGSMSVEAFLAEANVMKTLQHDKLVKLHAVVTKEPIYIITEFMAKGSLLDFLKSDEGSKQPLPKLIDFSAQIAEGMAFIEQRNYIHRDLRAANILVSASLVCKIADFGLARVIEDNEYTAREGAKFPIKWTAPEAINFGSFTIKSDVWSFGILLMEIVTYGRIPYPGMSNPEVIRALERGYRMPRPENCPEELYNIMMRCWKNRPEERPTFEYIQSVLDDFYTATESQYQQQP

[8] = molecular target: Inhibitor of nuclear factor kappa-B kinase subunit alpha (Homo sapiens) (UniProt O15111); assay: Inhibition of IKKalpha (unknown origin) at 0.2 uM incubated for 40 mins by radiometric kinase assay relative to control
Chain of Inhibitor of nuclear factor kappa-B kinase subunit alpha (Homo sapiens) (O15111 whole entry): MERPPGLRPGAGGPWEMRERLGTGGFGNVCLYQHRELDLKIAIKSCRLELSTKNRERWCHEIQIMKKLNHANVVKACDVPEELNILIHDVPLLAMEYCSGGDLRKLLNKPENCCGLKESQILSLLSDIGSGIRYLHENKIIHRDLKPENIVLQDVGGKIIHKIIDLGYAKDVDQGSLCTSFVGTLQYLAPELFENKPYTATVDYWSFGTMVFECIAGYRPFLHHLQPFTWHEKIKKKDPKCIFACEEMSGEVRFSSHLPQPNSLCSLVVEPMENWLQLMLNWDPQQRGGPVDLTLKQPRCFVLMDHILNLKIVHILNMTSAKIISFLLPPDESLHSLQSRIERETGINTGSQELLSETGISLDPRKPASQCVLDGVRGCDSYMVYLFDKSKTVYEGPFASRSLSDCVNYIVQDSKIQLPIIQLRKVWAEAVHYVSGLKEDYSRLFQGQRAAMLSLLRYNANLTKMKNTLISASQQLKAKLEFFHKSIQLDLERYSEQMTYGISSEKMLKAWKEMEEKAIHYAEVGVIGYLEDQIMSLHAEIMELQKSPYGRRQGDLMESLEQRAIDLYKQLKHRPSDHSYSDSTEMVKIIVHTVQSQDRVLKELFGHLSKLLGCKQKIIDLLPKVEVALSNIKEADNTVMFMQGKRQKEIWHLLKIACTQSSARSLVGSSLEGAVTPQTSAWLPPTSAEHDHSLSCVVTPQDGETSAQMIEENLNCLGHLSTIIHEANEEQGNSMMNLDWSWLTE

[9] = molecular target: Tyrosine-protein kinase ITK/TSK (Homo sapiens) (UniProt Q08881); assay: Inhibition of ITK (unknown origin) at 0.2 uM incubated for 40 mins by radiometric kinase assay relative to control
Chain of Tyrosine-protein kinase ITK/TSK (Homo sapiens) (Q08881 whole entry): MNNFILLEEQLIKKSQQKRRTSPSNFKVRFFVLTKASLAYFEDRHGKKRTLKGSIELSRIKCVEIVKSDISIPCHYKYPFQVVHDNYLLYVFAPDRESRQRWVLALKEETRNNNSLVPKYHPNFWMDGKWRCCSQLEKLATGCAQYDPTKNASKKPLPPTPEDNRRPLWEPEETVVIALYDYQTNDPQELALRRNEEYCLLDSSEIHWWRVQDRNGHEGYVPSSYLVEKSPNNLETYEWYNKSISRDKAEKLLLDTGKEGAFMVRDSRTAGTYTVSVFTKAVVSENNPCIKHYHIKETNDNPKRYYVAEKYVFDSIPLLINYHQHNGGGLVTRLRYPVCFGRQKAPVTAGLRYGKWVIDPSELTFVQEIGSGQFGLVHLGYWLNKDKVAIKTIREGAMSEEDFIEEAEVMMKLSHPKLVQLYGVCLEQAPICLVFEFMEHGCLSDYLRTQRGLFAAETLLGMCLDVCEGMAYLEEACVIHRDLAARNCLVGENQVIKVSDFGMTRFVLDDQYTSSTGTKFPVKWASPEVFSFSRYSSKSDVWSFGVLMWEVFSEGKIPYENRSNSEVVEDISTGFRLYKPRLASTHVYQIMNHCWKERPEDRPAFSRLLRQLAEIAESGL

[10] = molecular target: Mitogen-activated protein kinase 13 (Homo sapiens) (UniProt O15264); assay: Inhibition of SAPK4 (unknown origin) at 0.2 uM incubated for 40 mins by radiometric kinase assay relative to control
Chain of Mitogen-activated protein kinase 13 (Homo sapiens) (O15264 whole entry): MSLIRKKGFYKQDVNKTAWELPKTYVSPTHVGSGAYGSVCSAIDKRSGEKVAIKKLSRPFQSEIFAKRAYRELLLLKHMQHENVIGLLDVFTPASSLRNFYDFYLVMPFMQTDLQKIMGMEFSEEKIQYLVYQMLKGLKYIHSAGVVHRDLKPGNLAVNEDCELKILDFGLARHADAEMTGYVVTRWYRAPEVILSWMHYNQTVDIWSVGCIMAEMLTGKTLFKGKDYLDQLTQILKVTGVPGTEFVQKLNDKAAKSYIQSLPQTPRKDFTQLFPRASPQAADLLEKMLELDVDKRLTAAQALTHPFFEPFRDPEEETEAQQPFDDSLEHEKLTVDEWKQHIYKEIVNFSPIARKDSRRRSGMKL

[11] = molecular target: Mitogen-activated protein kinase kinase kinase 7 (Homo sapiens) (UniProt O43318); assay: Inhibition of TAK1 (unknown origin) at 0.2 uM incubated for 40 mins by radiometric kinase assay relative to control
MOLT-4 [12] = assay: Potency index, ratio of spebrutinib IC50 to test compound IC50 for antiproliferative activity against human MOLT-4 cells; type: functional
MOLT-4 [13] = assay: Potency index, ratio of ibrutinib IC50 to test compound IC50 for antiproliferative activity against human MOLT-4 cells; type: functional
[14] = molecular target: T1, Tyrosine-protein kinase BTK; assay: Inhibition of BTK phosphorylation in human JeKo-1 cells incubated for 72 hrs by Western blot analysis; type: cell-based; conditions: dose 30-750 nM
[15] = molecular target: 1-phosphatidylinositol 4,5-bisphosphate phosphodiesterase gamma-2 (Homo sapiens) (UniProt P16885); assay: Inhibition of PLCgamma2 phosphorylation in human JeKo-1 cells incubated for 72 hrs by Western blot analysis; type: cell-based; conditions: dose 30-750 nM
[16] = molecular target: Receptor-type tyrosine-protein kinase FLT3 (Homo sapiens) (UniProt P36888); assay: Inhibition of FLT3 phosphorylation in human JeKo-1 cells incubated for 72 hrs by Western blot analysis; type: cell-based; conditions: dose 30-750 nM
JeKo-1 [17] = assay: Induction of apoptosis in human JeKo-1 cells assessed as early apoptotic cells at 30 nM incubated for 72 hrs by Annexin VFITC/PI staining based flow cytometry analysis (reference value: 3.10%); type: functional
JeKo-1 [18] = assay: Induction of apoptosis in human JeKo-1 cells assessed as necrotic cells at 30 nM incubated for 72 hrs by Annexin VFITC/PI staining based flow cytometry analysis (reference value: 0.67%); type: functional
JeKo-1 [19] = assay: Induction of apoptosis in human JeKo-1 cells assessed as necrotic cells at 150 nM incubated for 72 hrs by Annexin VFITC/PI staining based flow cytometry analysis (reference value: 0.67%); type: functional
JeKo-1 [20] = assay: Induction of apoptosis in human JeKo-1 cells assessed as viable cells at 750 nM incubated for 72 hrs by Annexin VFITC/PI staining based flow cytometry analysis (reference value: 94.81%); type: functional; conditions: Homo sapiens, JeKo-1, read-out: Activity
JeKo-1 [21] = assay: Induction of apoptosis in human JeKo-1 cells assessed as early apoptotic cells at 750 nM incubated for 72 hrs by Annexin VFITC/PI staining based flow cytometry analysis (reference value: 3.10%); type: functional
JeKo-1 [22] = assay: Induction of apoptosis in human JeKo-1 cells assessed as upregulation of p53 protein expression incubated for 72 hrs by Western blot analysis; type: functional, cell-based; conditions: dose 30-750 nM
JeKo-1 [23] = assay: Induction of apoptosis in human JeKo-1 cells assessed as upregulation of cleaved caspase-3 protein expression incubated for 72 hrs by Western blot analysis; type: functional, cell-based; conditions: dose 30-750 nM
[24] = Metabolic stability in human liver microsome assessed as intrinsic clearance preincubated with compound for 5 mins followed by NADPH addition and measured upto 60 mins by LC-MS/MS analysis; type: ADME; conditions: liver microsomes, time < 65 min, read-out: CLH
[25] = Acute toxicity in ICR mouse assessed as animal survival at 375 mg/kg, ip measured for 2 weeks; type: organism-based; conditions: in vivo
[26] = Acute toxicity in ICR mouse assessed as animal survival at 300 mg/kg, ip measured for 2 weeks; type: organism-based; conditions: in vivo
PBMC = assay: Cytotoxicity against human PBMC cells assessed as reduction in cell viability; type: toxicity, cell-based
JeKo-1 [27] = assay: Antitumor activity against human JeKo-1 cells xenografted NOD/SCID mouse assessed as reduction in tumor weight at 50 mg/kg, ip measured for 16 days; type: functional; conditions: time 16 day
MV4-11 [28] = assay: Antitumor activity against human MV4-11 cells xenografted in NOD/SCID mouse assessed as tumor growth inhibition at 10 mg/kg ip administered once daily for 21 days; type: functional; conditions: MV4-11, 504 h, time 21 day, read-out: TGI
[29] = Toxicity in NOD/SCID mouse xenografted with human MV4-11 cells assessed as effect on body weight loss at 10 to 20 mg/kg, ip administered once daily for 21 days; type: organism-based; conditions: in vivo, 504 h, dose 10-20 mg/kg, time 21 day
MV4-11 [30] = assay: Antitumor activity against human MV4-11 cells xenografted NOD/SCID mouse assessed as increase in tumor necrotic cells at 20 mg/kg, ip administered once daily for 21 days by H and E staining analysis; type: functional, organism-based; conditions: time 21.0 day
in vitro [31] = conditions: human, Caco-2
Description: Apparent permeability across apical to basolateral side in human Caco-2 cells incubated for 120 mins by LC-MS/MS analysis

in vitro [32] = conditions: human, Caco-2; remark: listed apart in the source
Description: Apparent permeability across basolateral to apical side in human Caco-2 cells incubated for 120 mins by LC-MS/MS analysis

P-glycoprotein = assay: in vitro; conditions: human, Caco-2
Description: Efflux ratio of apparent permeability across basolateral to apical side over apical to basolateral side in human Caco-2 cells incubated for 120 mins in presence of P-glycoprotein by LC-MS/MS analysis

With CN1CCN(c2ccc(Nc3ncc(F)c(Nc4ccccc4C(=O)NN)n3)cc2)CC1 as the compound, how does the IC50 [1] read?
Its IC50 is 47 nM.

What about the inhibition [2] of the same compound?
Its inhibition is 62%.

And the inhibition [3]?
Its inhibition is 79%.

What about the inhibition [4] of the same compound?
The inhibition was 23%.

And the inhibition [5]?
The inhibition was 10%.

And the inhibition [6]?
The inhibition was 100%.

What about the inhibition [7] of the same compound?
Its inhibition is 27%.

And the inhibition [8]?
Its inhibition is 17%.

And the inhibition [9]?
The inhibition was 65%.

And the inhibition [10]?
The inhibition was 3%.

And the inhibition [11]?
The inhibition was 26%.

And the “Ratio IC50” value (MOLT-4 [12])?
The value was 8.

What about the “Ratio IC50” value (MOLT-4 [13]) of the same compound?
The value was 6.

What about the inhibition [14] of the same compound?
The inhibition was “Dose-Dependent Effect”.

And the inhibition [15]?
The inhibition was “Dose-Dependent Effect”.

And the inhibition [16]?
The inhibition was “Dose-Dependent Effect”.

And the Activity (JeKo-1 [17])?
Its Activity is 12.08%.

And the Activity (JeKo-1 [18])?
The Activity was 0.22%.

And the Activity (JeKo-1 [19])?
The Activity was 0.37%.

And the viability at 0.75 µM (JeKo-1 [20])?
The viability at 0.75 µM was 61.5%.

And the Activity (JeKo-1 [21])?
The Activity was 37.89%.

What about the Activity (JeKo-1 [22]) of the same compound?
The Activity was “Dose-Dependent Effect”.

And the Activity (JeKo-1 [23])?
The Activity was “Dose-Dependent Effect”.

And the CLint scaled [24]?
Its CLint scaled is 30.1 mL/min/kg.

And the survival at 336 h [25]?
Its survival at 336 h is 40%.

What about the survival at 336 h [26] of the same compound?
Its survival at 336 h is 60%.

What about the Activity (PBMC) of the same compound?
Its Activity is “Non-Toxic”.

And the Activity (JeKo-1 [27])?
Its Activity is 0.18 g.

And the inhibition in vivo at 10 mg/kg (MV4-11 [28])?
Its inhibition in vivo at 10 mg/kg is 74.2%.

And the Activity [29]?
Its Activity is “Non-Toxic”.

And the Activity (MV4-11 [30])?
The Activity was “Active”.

And the Papp A→B at 2 h (in vitro [31])?
Its Papp A→B at 2 h is 5.11 ×10⁻⁶ cm/s.

And the Papp B→A at 2 h (in vitro [32])?
Its Papp B→A at 2 h is 13.5 ×10⁻⁶ cm/s.

What about the efflux ratio at 2 h (P-glycoprotein) of the same compound?
Its efflux ratio at 2 h is 2.64.
